Laboratory results published in PubChem BioAssay (NCI).
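A five-concentration, 48-hour dose response in 96-well plates underlies each endpoint, interpolated linearly between surrounding concentrations. GI50 marks 50% less growth. The concentration for full growth arrest is given as TGI.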

Assays:
Assay in all cases: NCI tumour cell line growth inhibition, 48 h
786-0 renal = test system: 786-0 renal
LOX IMVI melanoma = test system: LOX IMVI melanoma
NCI-H460 lung = test system: NCI-H460 lung
OVCAR-5 ovarian = test system: OVCAR-5 ovarian
SF-295 CNS = test system: SF-295 CNS
SNB-19 CNS = test system: SNB-19 CNS
U251 CNS = test system: U251 CNS
UACC-62 melanoma = test system: UACC-62 melanoma
HL-60(TB) leukemia = test system: HL-60(TB) leukemia
HOP-92 NSCLC = test system: HOP-92 NSCLC

Row | Compound | TGI (786-0 renal) | TGI (LOX IMVI melanoma) | TGI (NCI-H460 lung) | TGI (OVCAR-5 ovarian) | TGI (SF-295 CNS) | TGI (SNB-19 CNS) | TGI (U251 CNS) | TGI (UACC-62 melanoma) | TGI (HL-60(TB) leukemia) | GI50 (786-0 renal) | GI50 (HOP-92 NSCLC) | TGI (HOP-92 NSCLC) | GI50 (LOX IMVI melanoma) | GI50 (NCI-H460 lung) | GI50 (OVCAR-5 ovarian) | GI50 (SF-295 CNS) | GI50 (SNB-19 CNS) | GI50 (U251 CNS) | GI50 (UACC-62 melanoma) | GI50 (HL-60(TB) leukemia)
1 | CC1=CC(C)(c2c[nH]c3ccccc23)CC(C)(C)c2c1[nH]c1ccccc21 (centres undefined) | 27.1 µM | 31.5 µM | 34.5 µM | 36.4 µM | 32.6 µM | 74.7 µM | 32 µM | 36.6 µM |  |  |  |  |  |  |  |  |  |  |  | 
2 | CCCCC(C)/C=C/C(=O)C1=C(O)/C(=C/C(=O)O)OC1=O (centres undefined) | > 100 µM | > 100 µM | > 100 µM | > 100 µM | > 100 µM | > 100 µM | > 100 µM | > 100 µM | > 100 µM |  |  |  |  |  |  |  |  |  |  | 
3 | O=S(=O)(NCCNc1nccc(-c2c(-c3ccc(F)c(O)c3)nc3sccn23)n1)c1ccc(Cl)cc1 | 13.6 µM | > 50 µM | > 50 µM | > 50 µM | 14.2 µM | 11.3 µM | 16 µM | 13 µM |  | 3.38 µM | 2.39 µM | 13.8 µM | 1.78 µM | 1.93 µM | 7.31 µM | 2.35 µM | 3.35 µM | 3.81 µM | 0.967 µM | 
4 | C=C1c2ccccc2C(=O)c2c1c1c(C(=O)OC)c(OC(=O)OCc3ccc([N+](=O)[O-])cc3)ccc1n2Cc1ccccc1 | 26 µM | > 100 µM | 88.6 µM | 49.5 µM | > 100 µM | 80.9 µM | > 100 µM | 22.6 µM |  | 7.17 µM | 2.29 µM | 7.59 µM | 35.7 µM | 26.8 µM | 17.7 µM | 33.7 µM | 20.3 µM | 39.9 µM | 10.5 µM | 
5 | COc1cc(Cl)cc(-c2nn(-c3cccc(NC(=O)Nc4cccc(C(F)(F)F)c4)c3)cc2-c2ccncc2)c1 | 6.78 µM | 7.04 µM | 4.66 µM | 30.1 µM | 4.62 µM | 35.9 µM | 2.91 µM | 3.84 µM | 5.51 µM | 1.94 µM |  |  | 1.81 µM | 0.84 µM | 3.06 µM | 0.783 µM | 2.77 µM | 0.879 µM | 1.47 µM | 1.91 µM
6 | Cc1ccccc1NC(=O)/C=N/O | > 100 µM | > 100 µM |  | > 100 µM | > 100 µM | > 100 µM | > 100 µM | 27.9 µM | 48.5 µM |  |  |  |  |  |  |  |  |  |  | 
7 | CC(C)(C)OC(=O)NCCCCn1c2c(c3ccccc3c1=O)C(=O)c1ccccc1-2 | 55.6 µM | 36.7 µM | 34.8 µM | > 100 µM | 56.1 µM | 94.5 µM | 37.6 µM | 27.8 µM | 59.4 µM | 21.7 µM |  |  | 12.5 µM | 5.9 µM | 44.7 µM | 16.5 µM | 25.1 µM | 15.9 µM | 10.9 µM | 4.71 µM
8 | COC(=O)c1cccc2c3ccccc3c3ccccc3c12 | > 100 µM | 81 µM |  | > 100 µM | 65.9 µM | > 100 µM | 73.6 µM | > 100 µM | 58.1 µM |  |  |  |  |  |  |  |  |  |  | 
9 | Nc1c(C(=O)Nc2ccccn2)sc2nc3c(cc12)C(O)CCC3 (centres undefined) | > 50 µM | > 50 µM | > 50 µM | > 50 µM | > 50 µM | > 50 µM | > 50 µM | > 50 µM | > 50 µM | 1.95 µM |  |  | 3.09 µM | 1.88 µM | 2.54 µM | 1.74 µM | 2.13 µM | 1.87 µM | 1.75 µM | 0.562 µM
10 | CC1(C)CCCC2(C)C3C(O)CC2(C)C(O)C31 (centres undefined) | 0.156 µM | > 100 µM | > 100 µM | > 100 µM | > 100 µM | > 100 µM | > 100 µM | > 100 µM |  |  |  |  |  |  |  |  |  |  |  | 
11 | Cc1cccc(C)c1NC(=O)CCC/C(CC(=O)c1ccc(F)cc1)=N\NC(=O)C(=O)NN | > 100 µM | > 100 µM | > 100 µM | > 100 µM | > 100 µM | > 100 µM | > 100 µM | > 100 µM | > 100 µM |  |  |  |  |  |  |  |  |  |  | 
12 | Nc1ccc(-c2cc(C(=O)Nc3nccs3)[nH]c(=S)n2)cc1 | > 100 µM | > 100 µM |  | > 100 µM |  | > 100 µM | > 100 µM | > 100 µM |  |  |  | > 100 µM |  |  |  |  |  |  |  | 
13 | O=C1N2Cc3c4ccc5c3CN3C(=O)N6Cc7c(ccc(c7CN1C6(c1ccccc1)C23c1ccccc1)OCCOCCOc1cc(Br)c(Br)cc1OCCOCCO4)OCCOCCOc1cc(Br)c(Br)cc1OCCOCCO5 (centres undefined) | > 100 µM |  | > 100 µM |  |  | > 100 µM | > 100 µM | > 100 µM |  |  |  | 90 µM |  |  |  |  |  |  |  | 
14 | Cc1cc(-c2nnc(/C=C/c3ccc4c(c3)OCO4)o2)n[nH]1 | > 50 µM | > 50 µM | > 50 µM | > 50 µM | 38 µM | > 50 µM | > 50 µM | > 50 µM | 3.99 µM | 16.7 µM |  |  | 15.9 µM | 15.1 µM | 38.5 µM | 7.04 µM | 32.6 µM | 13.6 µM | 15.3 µM | 1.34 µM
15 | Cc1cc(N(CCC#N)CCC#N)ccc1N=Nc1cc(Cl)ccc1Cl | 28.9 µM | 14.2 µM |  | 27.4 µM | 34.9 µM | 35.9 µM | 33.5 µM | 21.7 µM | 16 µM |  |  |  |  |  |  |  |  |  |  | 
